Measured values as given in patent US9249163B2, “PDE10a inhibitors for the treatment of type II diabetes” (Janssen Pharmaceutica, NV, priority 2013, dated 2016).
Structures can show the parent of a compound that is named as a salt.

Experiments:
[1] = biological target: Human recombinant PDE10A2 (Homo sapiens (Human), UniProt Q9Y233); assay: In vitro hPDE10a (human recombinant PDE10A2, scintillation proximity assay); assay type: biochemical; settings: human recombinant PDE10A2, 60 nM cAMP, 60 min at room temperature; read-out: hPDE10a2 IC50
Description: Human recombinant PDE10A2 was expressed in Sf9 cells, using a recombinant baculovirus construct containing the full length sequence containing a 6×His sequence following the start Met to allow metal affinity purification of the recombinant protein. Cells were harvested and the phosphodiesterase protein was purified by metal chelate chromatography on Ni-sepharose 6FF.
The affinity of the compounds of Formula (I) for phophodiesterases (PDE) was measured by a scintillation proximity assay (SPA). PDE Yttrium Silicate SPA beads allow PDE activity to be measured by direct binding of the primary phosphate groups of non-cyclic AMP or GMP to the beads via a complex iron chelation mechanism. The amount of bound tritiated product ([^3H]-AMP) is measured by liquid scintillation counting.
The compounds were dissolved and diluted in 100% DMSO in polystyrene plates to a concentration of 100-fold the final concentration in the assay. Human PDE10A enzyme solution (10 μL) was added to 20 μL, of incubation buffer (50 mM Tris pH 7.8, 8.3 mM MgCl2, 1.7 mM EGTA), 10 μL, substrate solution consisting of a mixture of non-tritiated and tritiated substrate (60 nM cAMP, 0.008 μCi ^3H-cAMP), and 0.4 μL, compound in 100% DMSO in a 384-well plate, and incubated for 60 min at room temperature. After incubation, the reaction was stopped with 20 μL, of stop solution, consisting of PDE SPA beads (17.8 mg beads/mL in 18 mM zinc sulphate). After sedimentation of the beads for 30 min, the radioactivity was measured in a Perkin Elmer Topcount scintillation counter and results were expressed as cpm. To measure the low control, no enzyme was added to the reaction mixture.
Data were calculated as the percentage of inhibition of total activity measured in the absence of test compound (% control).

[2] = biological target: Rat recombinant PDE10a (rPDE10a) (Rattus norvegicus (Rat), UniProt Q9QYJ6); assay: In vitro assay PDE10a (rat recombinant PDE10a, SPA); assay type: biochemical; settings: 60 nM cAMP, 60 min at rt, read-out: rPDE10a2 IC50
Description: Rat recombinant PDE10a (rPDE10a) was expressed in Sf9 cells using a recombinant rPDE10a baculovirus construct. Cells were harvested after 48 h of infection and the rPDE10a protein was purified by metal chelate chromatography on Ni-sepharose 6FF. Tested compounds were dissolved and diluted in 100% DMSO to a concentration 100 fold of the final concentration in the assay. Compound dilutions (0.4 μL) were added in 384 well plates to 20 μL of incubation buffer (50 mM Tris pH 7.8, 8.3 mM MgCl2, 1.7 mM EGTA). 10 μL of rPDE10a enzyme in incubation buffer was added and the reaction was started by addition of 10 μL substrate to a final concentration of 60 nM cAMP and 0.008 μCi ^3H-cAMP. The reaction was incubated for 60 min at rt. After incubation, the reaction was stopped with 20 μL of 17.8 mg/mL PDE SPA beads. After sedimentation of the beads during 30 min the radioactivity was measured in a Perkin Elmer Topcount scintillation counter and results were expressed as cpm. For blank values the enzyme was omitted from the reaction and replaced by incubation buffer. Control values were obtained by addition of a final concentration of 1% DMSO instead of compound.

Human recombinant PDE10A2, sequence (Q9Y233 267-1055): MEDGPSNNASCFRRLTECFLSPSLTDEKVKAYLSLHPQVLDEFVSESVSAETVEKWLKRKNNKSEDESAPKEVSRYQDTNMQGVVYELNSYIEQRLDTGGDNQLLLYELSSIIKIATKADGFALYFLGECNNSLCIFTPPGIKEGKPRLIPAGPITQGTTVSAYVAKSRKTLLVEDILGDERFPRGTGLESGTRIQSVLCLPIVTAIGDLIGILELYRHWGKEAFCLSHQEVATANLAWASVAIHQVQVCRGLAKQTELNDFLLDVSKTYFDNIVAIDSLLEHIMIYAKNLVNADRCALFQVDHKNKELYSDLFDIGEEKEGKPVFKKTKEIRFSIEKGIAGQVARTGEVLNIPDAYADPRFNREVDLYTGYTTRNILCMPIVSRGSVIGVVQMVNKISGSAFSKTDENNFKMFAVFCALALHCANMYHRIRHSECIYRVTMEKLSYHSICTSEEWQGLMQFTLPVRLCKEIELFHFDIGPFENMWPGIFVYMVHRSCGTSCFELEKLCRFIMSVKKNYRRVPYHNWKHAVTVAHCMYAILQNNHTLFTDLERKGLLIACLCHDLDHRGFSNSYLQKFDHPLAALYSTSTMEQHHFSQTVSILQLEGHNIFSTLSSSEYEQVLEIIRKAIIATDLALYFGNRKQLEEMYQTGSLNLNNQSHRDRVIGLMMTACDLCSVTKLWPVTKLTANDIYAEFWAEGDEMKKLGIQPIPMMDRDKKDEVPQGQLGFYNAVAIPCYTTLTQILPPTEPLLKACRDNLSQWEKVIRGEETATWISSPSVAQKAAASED
Rat recombinant PDE10a (rPDE10a), sequence (Q9QYJ6 whole entry): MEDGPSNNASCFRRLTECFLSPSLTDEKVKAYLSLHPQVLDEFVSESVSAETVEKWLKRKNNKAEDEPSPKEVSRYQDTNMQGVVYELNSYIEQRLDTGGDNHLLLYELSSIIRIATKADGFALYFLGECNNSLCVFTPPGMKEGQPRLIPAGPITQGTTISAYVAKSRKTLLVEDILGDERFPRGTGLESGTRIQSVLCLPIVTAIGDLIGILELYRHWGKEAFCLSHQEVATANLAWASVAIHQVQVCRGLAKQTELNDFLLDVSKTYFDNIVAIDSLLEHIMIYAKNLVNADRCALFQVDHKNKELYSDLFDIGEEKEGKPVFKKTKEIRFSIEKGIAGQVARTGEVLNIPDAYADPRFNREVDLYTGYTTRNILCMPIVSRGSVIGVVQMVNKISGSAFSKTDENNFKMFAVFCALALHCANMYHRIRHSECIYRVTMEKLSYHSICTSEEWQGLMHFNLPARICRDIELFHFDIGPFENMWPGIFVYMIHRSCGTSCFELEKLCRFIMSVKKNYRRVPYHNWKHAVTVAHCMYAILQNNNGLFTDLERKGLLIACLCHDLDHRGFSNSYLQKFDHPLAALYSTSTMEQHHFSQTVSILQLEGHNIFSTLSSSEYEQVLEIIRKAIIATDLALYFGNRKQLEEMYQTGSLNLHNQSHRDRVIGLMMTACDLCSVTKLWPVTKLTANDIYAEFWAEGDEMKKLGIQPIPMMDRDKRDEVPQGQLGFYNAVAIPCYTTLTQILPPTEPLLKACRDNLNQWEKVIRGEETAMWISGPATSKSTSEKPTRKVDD

Structure (SMILES) | IC50 [1] | IC50 [2]
OC(c1ccc(-c2cnc(N3CCOCC3)c3nc(/C=C/c4ccc5ccccc5n4)cn23)cc1)(C(F)(F)F)C(F)(F)F [Cpd 2, (E)-1,1,1,3,3,3-hexafluoro-2-(4-(8-morpholino-2-(2-(quinolin-2-yl)vinyl)imidazo[1,2-a]pyrazin-5-yl)phenyl)propan-2-ol] | 30 nM | 20 nM
O=C(O)c1ccc(-c2cnc(N3CCOCC3)c3nc(/C=C/c4ccc5ccccc5n4)cn23)cc1F [Cpd 3, (E)-2-Fluoro-4-(8-morpholino-2-(2-(quinolin-2-yl)vinyl)imidazo[1,2-a]pyrazin-5-yl)benzoic acid hydrochloric acid salt] | 5 nM | 9 nM
O=C(O)c1ccc(-c2cnc(N3CCOCC3)c3nc(/C=C/c4ccc5ccccc5n4)cn23)nc1 [Cpd 6, (E)-6-(8-morpholino-2-(2-(quinolin-2-yl)vinyl)imidazo[1,2-a]pyrazin-5-yl)nicotinic acid hydrochloric acid salt] | 12 nM | 14 nM
COc1cccc(/C=C/c2cn3c(-c4ccc(C(=O)O)cc4)cnc(N4CCOCC4)c3n2)n1 [Cpd 7, (E)-4-(2-(2-(6-Methoxypyridin-2-yl)vinyl)-8-morpholinoimidazo[1,2-a]pyrazin-5-yl)benzoic acid] | 6 nM | 16 nM
O=C(O)Cn1cc(-c2cnc(N3CCOCC3)c3nc(C#Cc4ccc5ccccc5n4)cn23)cn1 [Cpd 9, 2-(4-(8-Morpholino-2-(quinolin-2-ylethynyl)imidazo[1,2-a]pyrazin-5-yl)-1H-pyrazol-1-yl)acetic acid] | 1 nM | 2 nM
O=C(O)c1ccc(-c2cnc(N3CCOCC3)c3nc(C#Cc4ccccn4)cn23)cc1 [Cpd 10, 4-(8-Morpholino-2-(pyridin-2-ylethynyl)imidazo[1,2-a]pyrazin-5-yl)benzoic acid] | 12 nM | 16 nM
O=C(O)c1ccc(-c2cnc(N3CCOCC3)c3nc(C#Cc4nc5ccccc5s4)cn23)cc1 [Cpd 11, 4-(2-(Benzo[d]thiazol-2-ylethynyl)-8-morpholinoimidazo[1,2-a]pyrazin-5-yl)benzoic acid] | 7 nM | 9 nM
CS(=O)(=O)NC(=O)c1ccc(-c2cnc(N3CCOCC3)c3nc(CSc4ccc5ccccc5n4)cn23)cc1 [Cpd 12, N-(Methylsulfonyl)-4-(8-morpholino-2-((quinolin-2-ylthio)methyl)imidazo[1,2-a]pyrazin-5-yl)benzamide] | 2 nM | 4 nM
CC(C)[C@H](Nc1ccc(-c2cnc(N3CCOCC3)c3nc(/C=C/c4ccc5ccccc5n4)cn23)cc1)C(=O)O [Cpd 15, (S,E)-3-Methyl-2-(4-(8-morpholino-2-(2-(quinolin-2-yl)vinyl)imidazo[1,2-a]pyrazin-5-yl)phenylamino)butanoic acid trifluoroacetic acid salt] | 30 nM | 51 nM
O=C(O)c1ccc(-c2cnc(N3CCOCC3)c3nc(CCc4ccc5ccccc5n4)cn23)cc1 [Cpd 17, 4-(8-Morpholino-2-(2-(quinolin-2-yl)ethyl)imidazo[1,2-a]pyrazin-5-yl)benzoic acid trifluoroacetic acid salt] | 3 nM | 3 nM
COCCOCCOc1ccc(-c2cnc(N3CCOCC3)c3nc(/C=C/c4ccc5ccccc5n4)cn23)cc1 [Cpd 18, (E)-4-(5-(4-(2-(2-Methoxyethoxy)ethoxy)phenyl)-2-(2-(quinolin-2-yl)vinyl)imidazo[1,2-a]pyrazin-8-yl)morpholine] | 83 nM | 102 nM
CN1C(=O)Nc2ccc(-c3cnc(N4CCOCC4)c4nc(/C=C/c5ccc6ccccc6n5)cn34)cc2S1(=O)=O [Cpd 19, (E)-2-Methyl-7-(8-morpholino-2-(2-(quinolin-2-yl)vinyl)imidazo[1,2-a]pyrazin-5-yl)-2H-benzo[e][1,2,4]thiadiazin-3(4H)-one 1,1-dioxide] | 18 nM | 15 nM
CN1C(=O)N(C)S(=O)(=O)c2cc(-c3cnc(N4CCOCC4)c4nc(/C=C/c5ccc6ccccc6n5)cn34)ccc21 [Cpd 20, (E)-2,4-Dimethyl-7-(8-morpholino-2-(2-(quinolin-2-yl)vinyl)imidazo[1,2-a]pyrazin-5-yl)-2H-benzo[e][1,2,4]thiadiazin-3(4H)-one 1,1-dioxide] | 8 nM | 26 nM
O=c1[nH]cnn1-c1ccc(-c2cnc(N3CCOCC3)c3nc(CCc4ccc5ccccc5n4)cn23)cc1 [Cpd 21, 1-(4-(8-Morpholino-2-(2-(quinolin-2-yl)ethyl)imidazo[1,2-a]pyrazin-5-yl)phenyl)-1H-1,2,4-triazol-5(4H)-one] | 25 nM | 31 nM
O=C(O)CCNc1ccc(-c2cnc(N3CCOCC3)c3nc(/C=C/c4ccc5ccccc5n4)cn23)cc1 [Cpd 22, (E)-3-(4-(8-Morpholino-2-(2-(quinolin-2-yl)vinyl)imidazo[1,2-a]pyrazin-5-yl)phenylamino)propanoic acid trifluoroacetic acid salt] | 9 nM | 9 nM
O=C(O)CCNc1ccc(-c2cnc(N3CCOCC3)c3nc(CCc4ccc5ccccc5n4)cn23)cc1 [Cpd 23, 3-(4-(8-Morpholino-2-(2-(quinolin-2-yl)ethyl)imidazo[1,2-a]pyrazin-5-yl)phenylamino)propanoic acid trifluoroacetic acid salt] | 8 nM | 6 nM
CN1C(=O)NS(=O)(=O)c2cc(-c3cnc(N4CCOCC4)c4nc(/C=C/c5ccc6ccccc6n5)cn34)ccc21 [Cpd 24, (E)-4-Methyl-7-(8-morpholino-2-(2-(quinolin-2-yl)vinyl)imidazo[1,2-a]pyrazin-5-yl)-2H-benzo[e][1,2,4]thiadiazin-3(4H)-one 1,1-dioxide trifluoroacetic acid salt] | 3 nM | 5 nM
CS(=O)(=O)NC(=O)c1cncc(-c2cnc(N3CCOCC3)c3nc(/C=C/c4ccc5ccccc5n4)cn23)c1 [Cpd 25, (E)-N-(Methylsulfonyl)-5-(8-morpholino-2-(2-(quinolin-2-yl)vinyl)imidazo[1,2-a]pyrazin-5-yl)nicotinamide] | 2 nM | 3 nM
O=C1NC(=O)C(c2ccc(-c3cnc(N4CCOCC4)c4nc(CCc5ccc6ccccc6n5)cn34)cc2)O1 (stereo not shown) [Cpd 26, 5-(4-(8-Morpholino-2-(2-(quinolin-2-yl)ethyl)imidazo[1,2-a]pyrazin-5-yl)phenyl)oxazolidine-2,4-dione trifluoroacetic acid salt] | 6 nM | 8 nM
O=C(O)c1cncc(-c2cnc(N3CCOCC3)c3nc(/C=C/c4ccc5ccccc5n4)cn23)c1 [Cpd 27, (E)-5-(8-Morpholino-2-(2-(quinolin-2-yl)vinyl)imidazo[1,2-a]pyrazin-5-yl)nicotinic acid] | 2 nM | 2 nM
O=C(O)CNc1ccc(-c2cnc(N3CCOCC3)c3nc(/C=C/c4ccc5ccccc5n4)cn23)cc1 [Cpd 29, (E)-2-(4-(8-Morpholino-2-(2-(quinolin-2-yl)vinyl)imidazo[1,2-a]pyrazin-5-yl)phenylamino)acetic acid trifluoroacetic acid salt] | 24 nM | 15 nM
COCCOCCOc1ccc(-c2cnc(N3CCOCC3)c3nc(CCc4ccc5ccccc5n4)cn23)cc1 [Cpd 31, 4-(5-(4-(2-(2-Methoxyethoxy)ethoxy)phenyl)-2-(2-(quinolin-2-yl)ethyl)imidazo[1,2-a]pyrazin-8-yl)morpholine] | 1 nM | 115 nM
CS(=O)(=O)NC(=O)c1ccc(-c2cnc(N3CCOCC3)c3nc(CCc4ccc5ccccc5n4)cn23)cc1 [Cpd 61, N-(Methylsulfonyl)-4-(8-morpholino-2-(2-(quinolin-2-yl)ethyl)imidazo[1,2-a]pyrazin-5-yl)benzamide hydrochloric acid salt] | – | 6 nM
CS(=O)(=O)NC(=O)c1ccc(-c2cnc(N3CCOCC3)c3nc(/C=C/c4ccc5ccccc5n4)cn23)cc1 [Cpd 62, (E)-N-(Methylsulfonyl)-4-(8-morpholino-2-(2-(quinolin-2-yl)vinyl)imidazo[1,2-a]pyrazin-5-yl)benzamide hydrochloric acid salt] | – | 16 nM
